Assay in all cases: KiNativ, MOLM13 live cells
Common to all, as to type: cell-based

One test addresses T1, AurA (Homo sapiens, UniProt O14965).
T1 sequence (O14965 1-403): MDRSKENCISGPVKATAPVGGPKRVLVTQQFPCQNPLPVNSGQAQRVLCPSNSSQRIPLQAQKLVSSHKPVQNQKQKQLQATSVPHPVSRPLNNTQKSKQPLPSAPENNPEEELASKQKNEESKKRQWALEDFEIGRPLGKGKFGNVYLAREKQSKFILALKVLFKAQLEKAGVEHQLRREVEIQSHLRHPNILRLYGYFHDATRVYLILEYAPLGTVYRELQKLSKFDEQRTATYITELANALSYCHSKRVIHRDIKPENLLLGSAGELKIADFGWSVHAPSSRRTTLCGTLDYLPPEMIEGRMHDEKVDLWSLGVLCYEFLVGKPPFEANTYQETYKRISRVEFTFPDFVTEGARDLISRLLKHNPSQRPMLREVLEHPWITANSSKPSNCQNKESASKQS
The note with it: MOLM-13, 2 h, 100 nM. The method, then:
(§1) Samples were analyzed by KiNativ in situ kinase profiling by ActivX Biosciences.

Another test concerns the target BRAF (Homo sapiens, UniProt P15056). As to conditions: MOLM-13; 100 nM, 2 hours; Lys2; read-out: Inhibition vs DMSO. The method, then: as §1
For another test, the target named is FAM20B (Homo sapiens, UniProt O75063). The note with it: MOLM-13; 100 nM, 2 hours; ATP; read-out: Inhibition vs DMSO. The method, then:
as §1

Another test addresses GSK3B (Homo sapiens, UniProt P49841). As to conditions: MOLM-13; 100 nM, 2 hours; Lys2; read-out: Inhibition vs DMSO. As to the method:
as §1

Another test addresses IRE1 (Homo sapiens, UniProt O75460). The note with it: MOLM-13; 100 nM, 2 hours; Lys2; read-out: Inhibition vs DMSO. As to the method: as §1
The target of a further test is LOK (Homo sapiens, UniProt O94804). The note with it: 100 nM, 2 hours. As to the method:
as §1

A further test concerns the target T2, MAP2K3 (Homo sapiens, UniProt P46734).
T2 sequence (P46734 1-347): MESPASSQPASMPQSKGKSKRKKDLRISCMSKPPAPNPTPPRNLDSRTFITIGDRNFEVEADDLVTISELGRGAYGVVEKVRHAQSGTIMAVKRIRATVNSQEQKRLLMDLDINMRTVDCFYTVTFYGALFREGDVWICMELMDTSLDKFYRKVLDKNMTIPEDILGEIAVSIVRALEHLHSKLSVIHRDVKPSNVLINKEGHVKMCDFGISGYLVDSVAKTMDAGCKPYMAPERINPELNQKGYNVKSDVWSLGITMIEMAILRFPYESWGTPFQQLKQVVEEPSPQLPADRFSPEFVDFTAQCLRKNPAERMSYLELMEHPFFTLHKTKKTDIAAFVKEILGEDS
As to conditions: MOLM-13, 2 h, 100 nM. The method, then:
as §1

A further test has as its target T3, MAP2K6 (Homo sapiens, UniProt P52564).
T3 sequence (P52564 1-334): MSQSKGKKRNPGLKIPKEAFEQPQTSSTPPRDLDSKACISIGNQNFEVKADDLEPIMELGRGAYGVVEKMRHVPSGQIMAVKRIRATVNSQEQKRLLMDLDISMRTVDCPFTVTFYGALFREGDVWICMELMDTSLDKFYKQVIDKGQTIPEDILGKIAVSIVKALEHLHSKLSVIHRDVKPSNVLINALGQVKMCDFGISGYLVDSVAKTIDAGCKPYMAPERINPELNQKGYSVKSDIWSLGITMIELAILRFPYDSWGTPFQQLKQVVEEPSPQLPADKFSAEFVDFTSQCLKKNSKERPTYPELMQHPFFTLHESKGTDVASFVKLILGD
The note with it: MOLM-13, 2 h, 100 nM. As to the method:
as §1

A further test concerns the target NLK (Homo sapiens, UniProt Q9UBE8). As to conditions: MOLM-13; 100 nM, 2 hours; Lys2; read-out: Inhibition vs DMSO. As to the method:
as §1

Another test deals with PRPK (Homo sapiens, UniProt Q96S44). The note with it: MOLM-13; 100 nM, 2 hours; ATP Loop; read-out: Inhibition vs DMSO. As to the method: as §1
The target in the next test is TAO2 (Homo sapiens, UniProt Q9UL54). The note with it: MOLM-13; 100 nM, 2 hours; Lys2; read-out: Inhibition vs DMSO. The method, then:
as §1

The target of the next test is TBK1 (Homo sapiens, UniProt Q9UHD2). The note with it: MOLM-13; 100 nM, 2 hours; Lys1; read-out: Inhibition vs DMSO. The method, then: as §1
A further test concerns the target YANK3 (Homo sapiens, UniProt Q86UX6). The note with it: MOLM-13; 100 nM, 2 hours; Lys2; read-out: Inhibition vs DMSO. The method, then:
as §1

[1] abbreviates: Lys1, read-out: Inhibition vs DMSO.
Setting [2] is: Lys2, read-out: Inhibition vs DMSO.

We go through one compound from paper PMC7714403 (JCI Insight, 2020).

Read-outs that look alike come from different tables or passages of the source.

Chain of LOK (O94804 whole entry): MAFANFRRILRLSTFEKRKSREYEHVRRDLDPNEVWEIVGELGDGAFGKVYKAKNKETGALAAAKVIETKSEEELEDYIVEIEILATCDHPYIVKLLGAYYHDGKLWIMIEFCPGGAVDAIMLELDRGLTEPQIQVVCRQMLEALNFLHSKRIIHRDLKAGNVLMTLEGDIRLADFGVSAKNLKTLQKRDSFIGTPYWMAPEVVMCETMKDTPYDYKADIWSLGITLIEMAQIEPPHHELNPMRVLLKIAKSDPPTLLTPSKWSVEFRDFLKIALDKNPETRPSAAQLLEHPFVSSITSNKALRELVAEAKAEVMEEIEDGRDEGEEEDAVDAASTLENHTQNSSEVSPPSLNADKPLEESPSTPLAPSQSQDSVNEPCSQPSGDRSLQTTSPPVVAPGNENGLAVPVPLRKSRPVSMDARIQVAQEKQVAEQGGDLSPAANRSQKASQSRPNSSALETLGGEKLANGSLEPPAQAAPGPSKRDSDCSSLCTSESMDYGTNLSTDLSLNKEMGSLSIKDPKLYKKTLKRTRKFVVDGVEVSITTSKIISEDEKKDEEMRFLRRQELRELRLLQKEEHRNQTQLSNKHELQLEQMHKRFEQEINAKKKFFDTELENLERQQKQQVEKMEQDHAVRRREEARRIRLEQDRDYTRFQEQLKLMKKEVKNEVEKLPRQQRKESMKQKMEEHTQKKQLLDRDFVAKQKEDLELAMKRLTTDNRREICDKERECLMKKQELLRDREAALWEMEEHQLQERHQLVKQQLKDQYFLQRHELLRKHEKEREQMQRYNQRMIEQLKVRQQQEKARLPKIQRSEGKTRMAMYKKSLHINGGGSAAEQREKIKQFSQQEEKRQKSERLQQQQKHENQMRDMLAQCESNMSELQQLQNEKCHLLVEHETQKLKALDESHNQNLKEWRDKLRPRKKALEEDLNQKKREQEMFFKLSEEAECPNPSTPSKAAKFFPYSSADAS
Chain of BRAF (P15056 whole entry): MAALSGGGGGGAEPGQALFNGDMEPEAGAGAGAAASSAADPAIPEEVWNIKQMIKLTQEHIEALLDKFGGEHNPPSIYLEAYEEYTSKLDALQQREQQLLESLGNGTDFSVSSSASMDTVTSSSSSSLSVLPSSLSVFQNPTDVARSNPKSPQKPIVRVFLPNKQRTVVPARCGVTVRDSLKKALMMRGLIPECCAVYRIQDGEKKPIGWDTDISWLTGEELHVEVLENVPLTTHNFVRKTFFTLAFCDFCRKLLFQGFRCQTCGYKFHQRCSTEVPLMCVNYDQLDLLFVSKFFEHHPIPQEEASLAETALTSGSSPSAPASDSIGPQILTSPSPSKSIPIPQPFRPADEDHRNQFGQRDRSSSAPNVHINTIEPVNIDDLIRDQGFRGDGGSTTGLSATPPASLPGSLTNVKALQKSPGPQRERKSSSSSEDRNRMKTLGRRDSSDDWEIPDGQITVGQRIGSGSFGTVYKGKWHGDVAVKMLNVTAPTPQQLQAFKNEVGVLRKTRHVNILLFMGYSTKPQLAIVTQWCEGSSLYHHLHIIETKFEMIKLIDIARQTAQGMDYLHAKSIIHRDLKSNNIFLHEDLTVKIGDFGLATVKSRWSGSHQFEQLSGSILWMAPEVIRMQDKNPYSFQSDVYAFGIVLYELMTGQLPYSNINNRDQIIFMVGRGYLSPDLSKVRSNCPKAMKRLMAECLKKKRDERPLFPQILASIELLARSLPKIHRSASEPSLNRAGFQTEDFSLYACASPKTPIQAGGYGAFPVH
Chain of TAO2 (Q9UL54 whole entry): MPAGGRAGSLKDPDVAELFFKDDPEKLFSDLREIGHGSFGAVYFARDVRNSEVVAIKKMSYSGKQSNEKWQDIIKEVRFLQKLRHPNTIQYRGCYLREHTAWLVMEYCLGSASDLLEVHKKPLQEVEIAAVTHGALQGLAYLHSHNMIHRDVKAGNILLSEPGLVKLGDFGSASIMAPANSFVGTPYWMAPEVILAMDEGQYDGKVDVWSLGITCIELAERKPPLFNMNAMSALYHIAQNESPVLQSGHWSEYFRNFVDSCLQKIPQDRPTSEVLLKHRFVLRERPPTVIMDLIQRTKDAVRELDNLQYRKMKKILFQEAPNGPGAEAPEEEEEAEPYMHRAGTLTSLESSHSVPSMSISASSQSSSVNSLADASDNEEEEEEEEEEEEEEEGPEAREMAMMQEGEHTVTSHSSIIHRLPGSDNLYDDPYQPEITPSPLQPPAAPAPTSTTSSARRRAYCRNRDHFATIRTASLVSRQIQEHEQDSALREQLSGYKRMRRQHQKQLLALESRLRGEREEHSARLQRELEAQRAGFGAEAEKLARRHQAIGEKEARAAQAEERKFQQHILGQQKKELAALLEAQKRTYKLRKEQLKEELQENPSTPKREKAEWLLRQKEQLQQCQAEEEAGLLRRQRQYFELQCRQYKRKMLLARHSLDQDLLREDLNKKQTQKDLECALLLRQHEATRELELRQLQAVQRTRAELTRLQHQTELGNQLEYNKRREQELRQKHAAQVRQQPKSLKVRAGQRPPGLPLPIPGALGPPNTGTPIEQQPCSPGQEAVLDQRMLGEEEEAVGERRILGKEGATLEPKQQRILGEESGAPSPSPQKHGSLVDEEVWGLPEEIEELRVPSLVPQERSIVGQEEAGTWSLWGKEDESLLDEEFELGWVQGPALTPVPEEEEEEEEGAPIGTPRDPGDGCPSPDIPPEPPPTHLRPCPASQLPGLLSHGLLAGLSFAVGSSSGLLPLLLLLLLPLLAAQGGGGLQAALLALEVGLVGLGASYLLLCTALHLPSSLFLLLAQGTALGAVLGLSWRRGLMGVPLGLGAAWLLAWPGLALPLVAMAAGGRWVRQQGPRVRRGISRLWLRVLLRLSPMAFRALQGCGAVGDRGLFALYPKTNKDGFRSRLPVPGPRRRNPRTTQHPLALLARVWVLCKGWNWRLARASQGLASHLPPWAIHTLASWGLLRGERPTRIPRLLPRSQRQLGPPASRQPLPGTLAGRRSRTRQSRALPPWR
Chain of IRE1 (O75460 19-977): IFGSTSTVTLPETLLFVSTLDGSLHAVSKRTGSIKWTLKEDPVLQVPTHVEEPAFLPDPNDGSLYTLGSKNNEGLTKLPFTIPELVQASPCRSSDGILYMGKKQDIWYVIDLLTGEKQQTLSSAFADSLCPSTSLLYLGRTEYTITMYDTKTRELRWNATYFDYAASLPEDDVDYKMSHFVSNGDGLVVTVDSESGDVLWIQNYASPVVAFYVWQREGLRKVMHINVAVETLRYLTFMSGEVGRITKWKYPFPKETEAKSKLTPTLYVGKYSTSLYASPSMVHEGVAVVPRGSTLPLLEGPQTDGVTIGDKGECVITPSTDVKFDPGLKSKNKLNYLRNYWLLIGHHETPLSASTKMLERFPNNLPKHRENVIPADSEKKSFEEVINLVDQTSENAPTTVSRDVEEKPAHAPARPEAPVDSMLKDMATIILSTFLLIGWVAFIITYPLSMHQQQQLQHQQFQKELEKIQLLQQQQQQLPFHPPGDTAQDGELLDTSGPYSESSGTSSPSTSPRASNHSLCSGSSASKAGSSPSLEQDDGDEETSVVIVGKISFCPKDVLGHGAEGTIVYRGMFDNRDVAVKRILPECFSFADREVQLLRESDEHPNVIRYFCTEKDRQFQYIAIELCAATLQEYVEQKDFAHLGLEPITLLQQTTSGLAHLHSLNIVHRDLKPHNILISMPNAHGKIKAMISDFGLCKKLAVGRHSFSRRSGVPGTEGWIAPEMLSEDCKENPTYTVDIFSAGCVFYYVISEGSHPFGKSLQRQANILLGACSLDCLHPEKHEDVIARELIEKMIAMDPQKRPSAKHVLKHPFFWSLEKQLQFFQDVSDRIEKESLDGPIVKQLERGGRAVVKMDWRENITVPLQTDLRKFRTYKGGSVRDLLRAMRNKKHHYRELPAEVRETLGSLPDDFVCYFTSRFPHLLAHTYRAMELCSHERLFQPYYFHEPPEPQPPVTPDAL
Chain of FAM20B (O75063 whole entry): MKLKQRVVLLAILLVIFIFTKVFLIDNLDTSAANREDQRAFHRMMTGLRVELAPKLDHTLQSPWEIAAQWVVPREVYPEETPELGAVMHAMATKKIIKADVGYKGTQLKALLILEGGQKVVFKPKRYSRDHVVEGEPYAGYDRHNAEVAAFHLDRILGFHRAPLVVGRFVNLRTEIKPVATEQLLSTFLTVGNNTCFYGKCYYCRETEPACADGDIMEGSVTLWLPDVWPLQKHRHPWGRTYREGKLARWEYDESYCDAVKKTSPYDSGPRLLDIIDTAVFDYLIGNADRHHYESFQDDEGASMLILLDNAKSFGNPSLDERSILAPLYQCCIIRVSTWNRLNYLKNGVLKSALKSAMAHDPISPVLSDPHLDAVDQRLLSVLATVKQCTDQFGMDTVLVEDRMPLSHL
Chain of PRPK (Q96S44 whole entry): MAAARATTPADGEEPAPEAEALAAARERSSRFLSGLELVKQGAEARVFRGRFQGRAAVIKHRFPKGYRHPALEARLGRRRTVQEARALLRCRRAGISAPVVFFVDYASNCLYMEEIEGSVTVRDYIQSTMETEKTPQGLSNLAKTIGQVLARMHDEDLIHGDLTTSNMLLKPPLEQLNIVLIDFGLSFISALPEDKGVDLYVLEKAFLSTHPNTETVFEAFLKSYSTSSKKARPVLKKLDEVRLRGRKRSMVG
Chain of YANK3 (Q86UX6 whole entry): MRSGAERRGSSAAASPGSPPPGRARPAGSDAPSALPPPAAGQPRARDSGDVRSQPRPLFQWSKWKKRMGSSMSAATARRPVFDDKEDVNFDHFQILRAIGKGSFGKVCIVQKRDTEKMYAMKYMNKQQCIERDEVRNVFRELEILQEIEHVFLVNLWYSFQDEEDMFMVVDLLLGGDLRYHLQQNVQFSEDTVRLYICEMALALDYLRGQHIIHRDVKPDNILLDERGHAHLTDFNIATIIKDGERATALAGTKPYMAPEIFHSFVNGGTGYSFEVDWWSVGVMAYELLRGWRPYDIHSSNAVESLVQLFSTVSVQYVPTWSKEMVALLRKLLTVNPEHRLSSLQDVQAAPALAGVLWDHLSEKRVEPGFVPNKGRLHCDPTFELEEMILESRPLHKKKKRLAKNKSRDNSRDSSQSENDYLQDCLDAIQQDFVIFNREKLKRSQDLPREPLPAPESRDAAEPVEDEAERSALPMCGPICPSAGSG

As to `CN1CCN(Cc2ccc(Nc3ncc(Cl)c(Nc4ccccc4S(=O)(=O)N(C)C)n3)cc2)CC1` [TP-0903], the inhibition – broadly, the relative decrease from the control value, in per cent – at 0.1 µM on AurA (setting [1]) is 58.2%; on AurA (setting [2]) it was 59.4%; at BRAF it was 16.8%; on FAM20B, -5%; at GSK3B, -11.3%; at IRE1 it was -29.3%. The inhibition at 0.1 µM on MAP2K3 (Activation Loop, read-out: Inhibition vs DMSO) was -10.9%; at MAP2K3 (setting [1]), 3.4%; at MAP2K3 (setting [2]), 8.2%; on MAP2K6 (setting [1]), -2.4%; on MAP2K6 (setting [2]) it was -11.9%; at NLK, -30.4%. Further, the inhibition at 0.1 µM at PRPK was 29.4%; at TAO2, 10.8%; on TBK1, 82.3%; on YANK3 it was -4.7%. Moreover, the “Inhibition vs DMSO” value at LOK (Lys1) was determined as 56.8%; at LOK (Lys2) it was 82.8%.
